Source: patent US20230165843A1, “USE AND PHARMACEUTICAL COMPOSITION OF PHENYLISOXAZOLYL METHYLENE-NAPHTHALENE-ETHER DERIVATIVES” (priority 2019, published 2023)

How the values were obtained:
HBV (rAAV8-1.3HBV) = assay: AAV/HBV Mouse Model; format: in vivo, mice
Description: AAV/HBV Mouse Model and Compound Treatment
Male C57BL′6 mice of 5-week old (obtained from Shanghai Jihui Laboratory Animal Care Co., Ltd) were given rAAV8-1.3HBV (1×1011 v.g.) via tail vein to establish infection on Day −28. After 14 days, 21 days, and on Day −4, blood was drawn from submandibular vein to determine the level of HBV DNA, and HBsAg. On Day-4, 40 mice were chosen based on HBV DNA, and HBsAg results, and were randomly assigned to 5 groups. After the mice were infected with HBV virus for 28 days, treatment was given orally once per day, for 4 weeks. Group 1 was given vehicle (0.5% CMC-Na, 10 ml/kg), Group 2 was given positive control ETV (0.1 mg/kg). Groups 3, 4, and 5 were given Compound 33 at 10 mg/kg, 30 mg/kg, and 60 mg/kg, respectively. Blood was drawn from submandibular vein every week to determine the concentration of HBV DNA, HBV RNA, and HBsAg. On Day 28, blood was taken from the heart.
HBV DNA determination by qPCR. DNA in the mice plasma was isolated with the QIAamp 96 DNA Blood Kit according to the manual and quantified by the qPCR, and performed using the following program: 95C for 10 min, then cycling at […] 15 sec, 60° C. 1 min for 40 cycles.
HBV RNA determination by qPCR. RNA in the mice plasma was isolated with the PureLink™ Pro 96 Viral RNA/DNA Kit according to the manual. 20 μl of the plasma was used to extract RNA
HBsAg determination by ELISA. HBsAg in the samples was measured by the HBsAg ELISA kit (Autobio) according to the manual. Briefly, after the plasma was diluted 1200× in a coated plate, and incubate with the enzyme conjugated ([…], 60 min), and the plate was washed 5 time. Substrate was added, and it was kept from light at room temperature for 10 min and intensity was measured by a plated reader.
Average±Standard deviation was calculated for each group, and analyzed with Student's t-test.

HBV (D type) = assay: PHH (Primary Human Hepatocyte) Assay, HBV infection; format: cell-based, hepatitis B virus; settings: PHH cells infected with HBV (D type); for inhibition of HBV RNA: culture supernatant day 9, RT-qPCR, FIG. 3; for inhibition of extracellular HBV DNA: culture supernatant day 9, qPCR, FIG. 1; for inhibition of HBsAg: culture supernatant day 9, FIG. 2
Procedure: PHH (Primary Human Hepatocyte) Assay: Cell Line and Compound Treatment
The PHH cells were seeded into the 48-well plates at the density of 1.32×10^5 cells/well. The PHH cells seeding date was defined as day 0. The PHH cells were infected with HBV (D type) at 1600 GE/cell on day 1. The culture medium containing compounds was refreshed on day 2, 4, 6 and day 8. On day 9, the cells were treated with CCK8 and culture supernatant and cells were collected.
FXR Compounds were tested at 10000.0, 3000.0, 1000.0, 300.0, 100.0, 30.0, and 10.0 nM, and ETV was tested at 0.2000, 0.0667, 0.0222, 0.0074, 0.0025, 0.0008, and 0.0003 nM. 1% DMSO was used as non-treatment control. The supernatants on day 9 were collected, and analyzed for HBV DNA by qPCR, HBV RNA by RT-qPCR, HBsAg and HBeA by ELISA.
DNA in the culture supernatants was isolated with the QIAamp 96 DNA Blood Kit according to the manual and quantified by the qPCR. 80 μl of the culture supernatants sample was used to extract DNA. The elution volume was 120 μl. The PCR mix (8 μl/well) and the samples (2 μl/well) or plasmid standards (2 μl/well) were added to the 384-well optical reaction plate and performed using the following program: 95C for 10 min, then cycling at 95° C. 15 sec, 60° C. 1 min for 40 cycles.
RNA in the culture supernatants was isolated with the PureLink™ Pro 96 Viral RNA Kit according to the manual. 35 μl of the culture supernatants sample was used to extract RNA. The elution volume was 100 μl. HBV RNA was quantified by RT-qPCR.
For HepG2-NTCP Assay, HBsAg and HBeAg in the samples harvested on day 9 were measured by the HBsAg ELISA kit (Autobio) and HBeAg ELISA kit (Autobio) according to the manual. For PHH assay, Chemiluminescence Apparatu was used to measure HBsAg according to the Antu HBsAg ELISA kit manual.
% HBV DNA inhibition=(1−HBV DNA copy number of test sample/avg. HBV DNA copy number of 1% DMSO control)×100%
% HBV RNA inhibition=(1−HBV RNA copy number of test sample/avg. HBV RNA copy number of 1% DMSO control)×100%
% HBsAg inhibition=(1−HBsAg quantity of sample/HBsAg quantity of 1% DMSO control)×100%
The EC50 and CC50 values were determined by dose-response curves fitted by GraphPad Prism using “log (agonist) vs. response-variable slope”.

[1] = positive control 0.1 mg/kg orally once per day, 4 weeks

Row | Compound | HBsAg, lowered as compared to the vehicle group (HBV (rAAV8-1.3HBV); high dose group 60 mg/kg orally once per day, 28 days, FIG. 6) | HBV RNA, lower than the vehicle group (HBV (rAAV8-1.3HBV); high dose group 60 mg/kg orally once per day, 28 days, significantly lower than vehicle (p<0.01), FIG. 5) | HBV DNA, lower than the vehicle group (HBV (rAAV8-1.3HBV); high dose group 60 mg/kg orally once per day, 28 days, significantly lower than vehicle (p<0.05), FIG. 4) | inhibition of HBV RNA (HBV (D type)) | inhibition of extracellular HBV DNA (HBV (D type)) | inhibition of HBsAg (HBV (D type)) | effect on HBV RNA as compared to the vehicle group (HBV (rAAV8-1.3HBV); [1]) | effect on HBsAg as compared to the vehicle group (HBV (rAAV8-1.3HBV); [1])
1 | O=C([O-])c1ccc(Oc2ccc3cc(OCc4c(-c5c(Cl)cccc5Cl)noc4C4CC4)ccc3c2)nc1.[Na+] [Compound 33, Sodium 6-((6-((5-cyclopropyl-3-(2,6-dichlorophenyl)isoxazol-4-yl)methoxy)naphthalen-2-yl)oxy)nicotinate] | 0.38 log 10 [IU/ml] | 0.60-0.66 log 10[RNA copy/uL] | 0.77-1.12 log 10[DNA copy/uL] |  |  |  |  | 
2 | O=C(O)c1ccc(Oc2cccc3cc(OCc4c(-c5c(Cl)cccc5Cl)noc4C4CC4)ccc23)nc1 [Compound 22, 6-((6-((5-cyclopropyl-3-(2,6-dichlorophenyl)isoxazol-4-yl)methoxy)naphthalen-1-yl)oxy)nicotinic acid] |  |  |  | dose-dependent inhibition | dose-dependent inhibition | dose-dependent inhibition |  | 
3 | C=C1[C@H](CO)[C@@H](O)C[C@@H]1n1cnc2c(=O)[nH]c(N)nc21 [ETV, entecavir, reference compound] |  |  |  | no significant inhibition | significant inhibition | no significant inhibition | no significant effect | no significant effect
4 | Cc1nc(Oc2cccc3cc(OCc4c(-c5c(Cl)cccc5Cl)noc4C4CC4)ccc23)ccc1C(=O)O [Compound 27, 6-((6-((5-cyclopropyl-3-(2,6-dichlorophenyl)isoxazol-4-yl)methoxy)naphthalen-1-yl)oxy)-2-methylnicotinic acid] |  |  |  | dose-dependent inhibition | dose-dependent inhibition | dose-dependent inhibition |  | 
5 | O=C(O)c1ccc(Oc2ccc3cc(OCc4c(-c5c(Cl)cccc5Cl)noc4C4CC4)ccc3c2)nc1 [Compound 1, 6-((6-((5-cyclopropyl-3-(2,6-dichlorophenyl)isoxazol-4-yl)methoxy)naphthalen-2-yl)oxy)nicotinic acid] |  |  |  | dose-dependent inhibition | dose-dependent inhibition | dose-dependent inhibition |  | 
